{"source": "patent US11806359B2", "about": "(priority 2020, dated 2023)", "key": {"Ebolavirus (EBOV/Kik)": {"system": "Ebolavirus (EBOV/Kik)", "format": "cell-based", "settings": "based on the oleandrin content; final concentration of compositions 20 microg/mL"}, "ZIKV (PLCal_ZV strain)": {"system": "ZIKV (PLCal_ZV strain)", "test": "CPE-based antiviral assay, ZIKV, neutral red readout (Example 14)", "format": "cell-based, Zikavirus", "settings": "6 days post infection", "protocol": "A CPE-based antiviral assay was performed by infecting target cells in the presence or absence of test compositions, at a range of concentrations. […] cytopathic effects and cell death. […] For CPE-based assays, cell viability was determined with a neutral red readout. Viable cells incorporate neutral red in their lysosomes. Uptake of neutral red relies on the ability of live cells to maintain a lower pH inside their lysosomes than in the cytoplasm, and this active process requires ATP. Once inside the lysosome, the neutral red dye becomes charged and is retained intracellularly. […] The amount of neutral red in solution was quantified by reading the absorbance (optical density) of each well at 490 nm […]\nCytotoxic effects were evaluated in uninfected cells by comparing viability in the presence of inhibitors to the viability of mock-treated cells. Cytotoxicity was determined by an XTT viability assay, which was conducted at the same timepoint as the readout for the corresponding infection assay.\nTest compositions were dissolved in 100% methanol. […] When possible, the EC50 and CC50 of the composition was determined for each assay using GraphPad Prism software. […]\nProtection of ZIKV-induced cytopathic effect (CPE) with Neutral Red readout: For the ZIKV antiviral assay, the PLCal_ZV strain was used. […]"}, "HTLV-1": {"system": "HTLV-1", "test": "Infectivity of HTLV-1 particles from treated SLB1 cells on primary huPBMCs, p19Gag ELISA", "format": "cell-based, human T-cell leukemia virus type-1", "settings": "even the lowest concentration (10 μg/ml); relative to vehicle control"}, "SARS-CoV-2": {"system": "SARS-CoV-2", "test": "Direct antiviral activity against SARS-CoV-2, percent infected cells by immunostaining (Example 29)", "format": "cell-based", "protocol": "The results are depicted in FIGS. 24A and 24B. […] Potential methods of action include inhibition of viral replication, assembly, and/or egress.\nGrowth media was removed from confluent monolayers of approximately 10^6 Vero CCL81 cells in 6-well plates. Oleandrin was serially diluted in culture media and added to […]. The growth media was replaced with 200 μl of maintenance media containing either 1.0 μg/ml, 0.5 μg/ml, 100 ng/ml, 50 ng/ml, 10 ng/ml, or 5 ng/ml oleandrin, or matched DMSO-only controls. The plates were incubated at 37° C. for about 30 minutes prior to addition of virus.\nSARS-CoV-2 virus was added to Oleandrin treated cells and untreated cells at a MOI (multiplicity of infection) of 0.4 (entry assay) or 0.02 (replication assay). Oleandrin remained in the wells during a 1 hr incubation at 37° C.\nAfter 1 hr absorption, inoculation media was removed and washed 1 time with PBS (standard phosphate buffer saline).\nMedia alone (no oleandrin) was added back to oleandrin-treated wells designated as “Pretreatment” on data slides. Media with indicated concentrations of oleandrin was added back to wells designated as “Duration” on data slides.\nPlates were fixed at either 24 (entry assay) or 48 (replication assay) hours post-infection and immunostained with virus-specific antibody and fluorescently labeled secondary antibody.\nCells were imaged using an Operetta and data was analyzed using custom algorithms in Harmonia software to determine the percent of infected cells in each well."}}}
{"smiles": "CO[C@H]1C[C@H](O[C@H]2CC[C@@]3(C)[C@H](CC[C@@H]4[C@@H]3CC[C@]3(C)[C@@H](C5=CC(=O)OC5)[C@@H](OC(C)=O)C[C@]43O)C2)O[C@@H](C)[C@@H]1O", "note": "[oleandrin]", "values": [{"measurement": "efficacy against Ebolavirus", "setting": "Ebolavirus (EBOV/Kik)", "result": "efficacious"}, {"measurement": "efficacy against Zika virus", "setting": "ZIKV (PLCal_ZV strain)", "result": "demonstrates efficacy"}, {"measurement": "infectivity of newly-synthesized p19Gag-containing virus particles", "setting": "HTLV-1", "result": "inhibited the infectivity"}, {"measurement": "antiviral activity", "setting": "SARS-CoV-2; 48-h, oleandrin only during the absorption phase (Pre-treatment data)", "result": "minimal antiviral activity"}, {"measurement": "viral infection", "setting": "SARS-CoV-2; 48-h, treated for the duration of the assay", "result": "significantly limited viral infection"}, {"measurement": "virus entry and/or viral replication", "setting": "SARS-CoV-2; 24 h, treated for the duration of the assay", "result": "significantly limited virus entry and/or viral replication"}]}
